Inhibition and MIC data for one compound are collected here from ChEMBL document CHEMBL1687779, “Sodium nitrite-mediated killing of the major cystic fibrosis pathogens Pseudomonas aeruginosa, Staphylococcus aureus, and Burkholderia cepacia under anaerobic planktonic and biofilm conditions” (2010).

Structures are written as SMILES. The source made the active and inactive calls. The calls are words filed in the database; no cut-off is given here.

Assay [1] concerns Pseudomonas aeruginosa. The note with it: FRD1, 256 ug/ml.
Description: Antimicrobial activity against mucoid Pseudomonas aeruginosa FRD1 harboring mucA22 mutant assessed as 2 log inhibition of bacterial cell growth at 256 ug/ml after 2 days under anaerobic condition
For assay [2], the system named is Pseudomonas aeruginosa. Conditions: PAO1, 64 to 256 ug/ml.
Description: Antimicrobial activity against non-mucoid Pseudomonas aeruginosa PAO1 assessed as inhibition of bacterial cell growth at 64 to 256 ug/ml after 24 hrs under anaerobic condition
Assay [3] concerns Staphylococcus aureus. Conditions: USA300, 512 ug/ml.
Description: Antimicrobial activity against Staphylococcus aureus USA300 assessed as inhibition of bacterial cell growth at 512 ug/ml after 24 hrs under anaerobic condition
Assay [4] concerns Pseudomonas aeruginosa. The note with it: FRD1, 64 ug/ml.
Description: Antimicrobial activity against mucoid Pseudomonas aeruginosa FRD1 harboring mucA22 mutant assessed as inhibition of bacterial cell growth at 64 ug/ml after 24 hrs under anaerobic condition
Assay [5] has as its system Burkholderia cepacia. The note with it: 128 ug/ml.
Description: Antimicrobial activity against Burkholderia cepacia isolated from cystic fibrosis patient assessed as inhibition of bacterial cell growth at 128 ug/ml after 48 hrs under anaerobic condition
For assay [6], the system named is Pseudomonas aeruginosa. Nature of the assay: Antimicrobial activity against non-mucoid Pseudomonas aeruginosa PAO1 after 24 hrs aerobic condition. Conditions: PAO1, 24 h.
Assay [7] relates to Staphylococcus aureus. The note with it: USA300, 1024 ug/ml.
Description: Antimicrobial activity against Staphylococcus aureus USA300 assessed as 2 log inhibition of bacterial cell growth at 1024 ug/ml after 2 days under anaerobic condition
The test system of assay [8] is Pseudomonas aeruginosa. Briefly: Antimicrobial activity against mucoid Pseudomonas aeruginosa FRD1 harboring mucA22 mutant after 24 hrs under anaerobic condition. Conditions: FRD1, 24 h.
The test system of assay [9] is Pseudomonas aeruginosa. Conditions: FRD1, 128 ug/ml.
Description: Antimicrobial activity against mucoid Pseudomonas aeruginosa FRD1 harboring mucA22 mutant assessed as inhibition of bacterial cell growth at 128 ug/ml after 24 hrs under anaerobic condition
Assay [10] concerns Burkholderia cepacia. Briefly: microbe, parasite or virus in culture. Conditions: 24 h.
Description: Antimicrobial activity against Burkholderia cepacia isolated from cystic fibrosis patient after 24 hrs aerobic condition
The subject of assay [11] is Staphylococcus aureus. Nature of the assay: Antimicrobial activity against Staphylococcus aureus USA300 after 24 hrs aerobic condition. The note with it: USA300, 24 h.
Assay [12] concerns Pseudomonas aeruginosa. Nature of the assay: Antimicrobial activity against non-mucoid Pseudomonas aeruginosa PAO1 after 24 hrs anaerobic condition. The note with it: PAO1, 24 h.
For assay [13], the system named is Staphylococcus aureus. Briefly: Antimicrobial activity against Staphylococcus aureus USA300 after 24 hrs anaerobic condition. Conditions: USA300, 24 h.
For assay [14], the system named is Pseudomonas aeruginosa. Briefly: Antimicrobial activity against mucoid Pseudomonas aeruginosa FRD1 harboring mucA22 mutant after 24 hrs under aerobic condition. Conditions: FRD1, 24 h.
Assay [15] concerns Staphylococcus aureus. Conditions: USA300, 2048 ug/ml.
Description: Antimicrobial activity against Staphylococcus aureus USA300 assessed as 4 log inhibition of bacterial cell growth at 2048 ug/ml after 4 days under anaerobic condition

Take `O=N[O-].[Na+]` [SODIUM NITRITE]: the inhibition result with Pseudomonas aeruginosa [1], in the assay on Pseudomonas aeruginosa [2], in the assay with Staphylococcus aureus [3], in the assay on Pseudomonas aeruginosa [4], in the assay on Burkholderia cepacia [5] and in the assay on Staphylococcus aureus [7] was “Active” in each case. For the same compound, the inhibition result with Pseudomonas aeruginosa [9] and with Staphylococcus aureus [15] was “Active” throughout. The MIC was 2050 µg/mL in the assay with Pseudomonas aeruginosa [6]; 128 µg/mL against Pseudomonas aeruginosa [8]; 512 µg/mL against Burkholderia cepacia [10]; 4100 µg/mL in the assay with Staphylococcus aureus [11]; 512 µg/mL in the assay with Pseudomonas aeruginosa [12]; 1020 µg/mL against Staphylococcus aureus [13]. This compound displayed an MIC against Pseudomonas aeruginosa [14] of 1020 µg/mL.
